Test [1] has as its system human embryonic stem cell line HS420. The test can be described thus: Dopaminergic differentiation of hESC with ALK inhibitors in the 3D-AirLiwell protocol, q-PCR after 2 and 4 weeks. It counts as cell-based. The conditions noted are these: HS420, 3D-AirLiwell, q-PCR at 2 and 4 weeks; for activity with respect to general neural differentiation, compared to LDN/SB (dual smad inhibition): exposed from day 0 during one week at 0.2 μM and 0.8 μM; for effect on dopaminergic differentiation, compared to LDN/SB: exposed from day 0 during one week at 0.2 M and 0.8 M. The method, then: FIG. 22. Dopaminergic differentiation adding Alk-I compounds in 3D-Ali protocol. The concentrations of the compounds tested were 0.2 μM and 0.8 μM.
FIG. 23A-D. Quantitative PCR results: Dopaminergic differentiation adding Alk-I compounds in 3D-Ali protocol. Shown are qPCR results at week 2 and week 4 for (A) Ki-67 and Nestin; (B) Pax6 and B3-Tub; (C) Lmx1a and Nurr-1; and (D) Map-2 and TH. The data in FIGS. 23A-D shown in each group of 12 bars represents, from left to right: 1: Control day 0, 2: LDN193189/SB431542, 3: DMSO 0.2 μM, 4: DMSO 0.8 μM, 5: DMH1 0.2 μM, 6: DMH2 0.2 μM, 7: A-8301 0.2 μM, 8: K02288 0.2 μM, 9: DMH1 0.8 μM, 10: DMH2 0.8 μM, 11: A-8301 0.8 μM, 12: K02288 0.8 μM. The 11 bars in the bottom bar graph in FIG. 23D represent data, from left to right, from: 1: Control day 0, 2: LDN193189/SB431542, 3: DMSO 0.2 μM, 4: DMSO 0.8 μM, 5: DMH1 0.2 μM, 6: DMH2 0.2 μM, 7: A-8301 0.2 μM, 8: K02288 0.2 μM, 9: DMH1 0.8 μM, 10: DMH2 0.8 μM, and 11: A-8301 0.8 μM.
For neural differentiation, 2200 human pluripotent stem cells per microwell in supplemented X-VIVO medium were deposited on a substrate material consisting in molded microwells on an insert in air-liquid interface (720 microwells per well). In order to correctly distribute the cells in each microwell, the substrate material is gently shacked and put on a stable support for 15 min. Supplemented X-VIVO medium was added under the insert. Medium from the cell suspension added on the microwells, was then removed by aspiration with a 0.5×16 mm needle and spheroids are just covered by a thin film (10) of residual medium before incubation of the plate at 37° C. for 24 hours.
24 hours after spheroids formation, culture medium under the insert is replaced with fresh medium made by a combination of half X-VIVO and half Neurobasal medium without ROCK inhibitor supplemented with 1% of penicillin/streptomycin, 1% Non-essential amino-acids, 1% B-27 supplement (Thermofisher), L-Glutamin, 0.5 μM of SB431542, 10 μM LDN193189 (dual-SMAD inhibition cocktail), 100 ng/ml of SHH, 2 μM of Purmorphamin and 100 ng/ml FGF-8. Spheroids are then cultured in their individualized microwells in a conventional incubator at 37° C. and 5% C02. At day 3, 3 μM of CHIR99021 was added. The neurobasal medium replaced progressively the X-VIVO medium. At day 8, medium is replaced by Neurobasal medium supplemented with 1% of penicillin/streptomycin, 1% Non-essential amino-acids, 1% B-27 supplement, 3 μM of CHIR99021, 0.5 mM of cAMP, […], […], 5 ng/mL of FGF20, 1 ng/mL of TGF-B3 and 1 μM of Compound E. At day 13 CHIR99021 is removed. NB: for each medium exchange, the half of medium was refreshed, using 0.5 ml per well.
For qRT-PCR, RNA was extracted from dopaminergic neurospheres cultivated in immersion (3D-i) and in air-liquid culture interface (3D-ALi) derived from 3 different cell batches of HS420 cells. The time points for RNA extraction were days: 3, 8, 15, 22, 29, 43, 57. Total RNA isolation was performed using the Qiagen RNeasy kit according to the manufacturer's instructions. RNA concentration was determined by a spectrometer (Thermo Scientific™ NanoDrop 2000) and RNA quality was verified by the 2100 Bioanalyzer (Agilent). Quantitative PCR was performed with Tecan Freedom Evo by using SYBR green fluorescence. cDNA was produced from RNA by using the prime script RT reagent kit (Takara). All primers were diluted at a concentration of […], and a master mix was used (Power SYBR Green Master Mix, Thermo Fisher Scientific). To perform the RNA-sequencing, the same RNA used in qPCR, were used to analyze the gene expression at week 6 (=day 43) of differentiation. […]

Test [2] has as its system dopaminergic neurospheres. As to the kind of experiment: Effect of laminin and hypoxia on dopaminergic maturation of neurospheres. It counts as cell-based, human. The note with it: 2.5% and 10% laminin; normoxia (20% oxygen) or hypoxia (3% oxygen); day 29. From the text:
FIG. 17. Experimental design and engineering of maturation protocol.
FIG. 18. Effect of hypoxia and laminin on dopaminergic maturation.
To improve the maturation step, 2.5% or 10% of Laminin 511 (Takkara) or Geltrex® (A growth factors reduced extracellular matrix, ThermoFisher) will be added into the cell culture medium to promote neuronal maturation of spheroids starting from day 1 of differentiation to the end and from day 13 to the end. RGD peptides could also be tested to enhance maturation, by adding them to the culture medium similarly to laminin or geltrex.
The inventors tested whether the additional of an extracellular matrix and/or hypoxia could improve the development of mature neurons. 2.5% and 10% laminin and normoxia (20% oxygen) or hypoxia (3% oxygen) was tested (FIG. 17). […] It was further hypothesized that other changes to the cell culture, such as modification of the volume of the cell culture medium could provide for an improvement in the maturation of neurons. […] In AirLiwell (6 well plate), a seeding 1.5 million cells per well (6 well AirLiwell plate) yields 2350 neurospheres.

Test [3] relates to dopaminergic neurospheres. The test can be described thus: Effects of antioxidants on three-dimensional dopaminergic neuron differentiation (3D-Ali). It counts as cell-based, human. The note with it: 3D-Ali neurospheres cultured with anti-oxidant (FIG. 21B). From the text: FIG. 20. Protocol design with the addition of anti-oxidants. FIG. 21A-B. Effects of DA maturation with the additional of anti-oxidants. […] The inventors also tested the effects of different antioxidants on three-dimensional dopaminergic neuron differentiation. […] Most of the tested anti-oxidants diminish TH expression during dopaminergic neuron differentiation.

This is an account of results in US20250250538A1, “METHODS FOR MAKING AND USING DIFFERENTIATED NEURAL CELLS” (RESEARCH DEVELOPMENT FOUNDATION, priority 2022, published 2025).

Consider `Cc1cccc(-c2nn(C(=S)Nc3ccccc3)cc2-c2ccnc3ccccc23)n1` [A-8301, 3-(6-Methyl-2-pyridinyl)-N -phenyl-4-(4-quinolinyl)-1H -pyrazole-1-carbothioamide], for which, in test [1], the “activity with respect to general neural differentiation, compared to LDN/SB (dual smad inhibition)” value is “activity comparable to LDN/SB” and the “effect on dopaminergic differentiation, compared to LDN/SB” value (“effect on dopaminergic differentiation” for short) is “no major effects”.

With laminin, the “effect on maturation of dopaminergic neurons” value in test [2] is on record as “did not provide any apparent effect”.

For `CC(C)Oc1ccc(-c2cnc3c(-c4ccnc5ccccc45)cnn3c2)cc1` [DMH1, 4-[6-[4-(1-Methylethoxy)phenyl]pyrazolo[1,5-a]pyrimidin-3-yl]-quinoline], in test [1], the “activity with respect to general neural differentiation, compared to LDN/SB (dual smad inhibition)” value is reported as “activity comparable to LDN/SB” and the “effect on dopaminergic differentiation” value is reported as “roughly equipotent as compared to LDN/SB”.

`c1ccc2c(-c3cnn4cc(-c5ccc(OCCN6CCOCC6)cc5)cnc34)ccnc2c1` [DMH2, 4-[6-[4-[2-(4-Morpholinyl)ethoxy]phenyl]pyrazolo[1,5-a]pyrimidin-3-yl]quinoline]: in test [1], the “activity with respect to general neural differentiation, compared to LDN/SB (dual smad inhibition)” value is listed as “activity comparable to LDN/SB” and the “effect on dopaminergic differentiation” value is “roughly equipotent as compared to LDN/SB”.

For `O=C1O[C@H]([C@@H](O)CO)C(O)=C1O` [ascorbic acid], the DA neuron differentiation entry in test [3] is “marked enhancement”.

On to `COc1cc(-c2cc(-c3cccc(O)c3)cnc2N)cc(OC)c1OC` [K02288], for which, in test [1], the “activity with respect to general neural differentiation, compared to LDN/SB (dual smad inhibition)” value was “activity comparable to LDN/SB” and the “effect on dopaminergic differentiation” value was “no major effects”.
